One experiment has as its target T1, rcaspase 3 (Homo sapiens, UniProt P42574).
T1 construct: purchased PharMingen (a Becton division company, San Diego, Calif.)
T1 sequence (P42574 29-175 limits assumed): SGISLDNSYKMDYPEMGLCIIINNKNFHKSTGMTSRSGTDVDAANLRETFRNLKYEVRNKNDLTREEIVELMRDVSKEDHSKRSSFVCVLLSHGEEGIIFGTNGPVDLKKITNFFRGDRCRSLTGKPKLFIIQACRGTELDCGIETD
T1 sequence (P42574 176-277 limits assumed): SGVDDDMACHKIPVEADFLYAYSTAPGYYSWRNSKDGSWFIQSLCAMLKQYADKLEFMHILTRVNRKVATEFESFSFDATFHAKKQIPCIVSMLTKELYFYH
In words: Fluorometric caspase-3 enzyme assay. It counts as biochemical. As to conditions: 2 ng rcaspase 3, 10 μM Ac-DEVD-AMC, 37° C., 30 minutes; read-out: IC50 as an inhibitor of caspase-3. The method, then: The activity of S-2-methyl-1-(carbonyl-Asp-CH2F)propyl N-phenylcarbamate as an inhibitor of caspase-3 was measured in a fluorometric enzyme assay. Enzyme activity was measured using synthetic peptide substrates attached to a fluorogenic leaving group. Cleavage of the synthetic substrate by the enzyme results in a fluorescent signal which is read in a spectrofluorometer or in a fluorometric microtiter plate reader.
12 concentrations of the test compound ranging from 30 pM to 10 μM were tested in the enzyme assay. The enzyme reaction was conducted in the presence of 2 ng rcaspase 3 (purchased from PharMingen, a Becton division company, San Diego, Calif.), various concentrations of test compound, 10 μM caspase 3 substrate Ac-DEVD-AMC (SEQ ID NO:1, purchased from Quality Controlled Biochemicals, Inc. Hopkinton, Mass.) and caspase buffer (20 mM PIPES, 100 mM NaCl, 10 mM DTT, 1 mM EDTA, 0.1% CHAPS and 10% sucrose, pH 7.2) in a total volume of 100 μL. The enzyme reaction was carried out in a 96-well plate and incubated at 37° C. for 30 minutes. The plate was then read with a fluorescence plate reader (EG&G WALLAG 1420-002) using excitation filter at 355 nm/emission filter at 460 nm.

Another experiment relates to HeLa cells. In words: Cell protection: HeLa cell death induced by TNF-α. It counts as cell-based. The following applies: TNF-α (25 ng/ml) and cycloheximide (30 μg/ml), 24 hours, calcein AM, read-out: EC50 for cytoprotection. As for the experimental part: Cell protection activity was determined by examining the ability of S-2-methyl-1-(carbonyl-Asp-CH2F)propyl N-phenylcarbamate to block HeLa cell death induced by TNF-α. In this assay, 25,000 HeLa cells are seeded in 96-well plates 24 hours prior to testing. On the assay day, the cells are pre-incubated for 30 minutes with the test compound at eight different concentrations and the cells are then challenged with TNF-α (25 ng/ml) and cycloheximide (30 μg/ml) and incubated further for 24 hours. The dead cells are then removed by two PBS washes and 100 μL of a cell-mass indicator solution (calcein AM, final concentration 8 μM) is added. After a 20 minute incubation, the fluorescent signal is measured at 485/510 nm and the data are expressed as percent control, using control cultures treated only with cycloheximide.

For the compound `CC(C)[C@H](OC(=O)Nc1ccccc1)C(=O)N[C@@H](CC(=O)O)C(=O)CF` [Example 3, S-2-Methyl-1-(carbonyl-Asp-CH2F)propyl N-Phenylcarbamate], at rcaspase 3, the IC50 turned out to be 17 nM. Besides, the concentration for a half-maximal effect (EC50) in the experiment on HeLa cells was 150 nM.

These data come from US6495522B1, “Substituted alpha-hydroxy acid caspase inhibitors and the use thereof” (Cytovia, Inc., priority 1999, dated 2002).
